From US5534632A, “Macrocyclic carbamate immunomodulators” (Abbott Laboratories, priority 1994, dated 1996)

Test system: human mixed lymphocyte reaction (MLR)
Experiment: human mixed lymphocyte reaction (MLR) assay, immunosuppressant activity
Type: cell-based
Conditions: Table 1
Method: The immunosuppressant activity of the compounds of the present invention was determined using the human mixed lymphocyte reaction (MLR) assay described by Kino, T. et al. in Transplantation Proceedings, XIX(5):36-39,Suppl.

SMILES	IC50 [nM]
CC[C@@H]1/C=C(\C)C[C@H](C)C[C@H](OC)[C@H]2O[C@@](O)(C(=O)C(=O)N3CCCC[C@H]3C(=O)O[C@H](/C(C)=C/[C@@H]3CC[C@@H](OC(=O)Nc4ccncc4)[C@H](OC)C3)[C@H](C)[C@@H](O)CC1=O)[C@H](C)C[C@@H]2OC [Example 14]	0.48
CC[C@@H]1/C=C(\C)C[C@H](C)C[C@H](OC)[C@H]2O[C@@](O)(C(=O)C(=O)N3CCCC[C@H]3C(=O)O[C@H](/C(C)=C/[C@@H]3CC[C@H](OC(=O)Nc4ccncc4)[C@H](OC)C3)[C@H](C)[C@@H](O)CC1=O)[C@H](C)C[C@@H]2OC [Example 43]	0.34
CC[C@@H]1/C=C(\C)C[C@H](C)C[C@H](OC)[C@H]2O[C@@](O)(C(=O)C(=O)N3CCCC[C@H]3C(=O)O[C@H](/C(C)=C/[C@@H]3CC[C@@H](OC(=O)N(C)O)[C@H](OC)C3)[C@H](C)[C@@H](O)CC1=O)[C@H](C)C[C@@H]2OC [Example 25]	0.28
CC[C@@H]1/C=C(\C)C[C@H](C)C[C@H](OC)[C@H]2O[C@@](O)(C(=O)C(=O)N3CCCC[C@H]3C(=O)O[C@H](/C(C)=C/[C@@H]3CC[C@@H](OC(=O)N4CCOCC4)[C@H](OC)C3)[C@H](C)[C@@H](O)CC1=O)[C@H](C)C[C@@H]2OC [Example 8]	0.4
CC[C@@H]1/C=C(\C)C[C@H](C)C[C@H](OC)[C@H]2O[C@@](O)(C(=O)C(=O)N3CCCC[C@H]3C(=O)O[C@H](/C(C)=C/[C@@H]3CC[C@@H](OC(=O)N(O)C4CCCCC4)[C@H](OC)C3)[C@H](C)[C@@H](O)CC1=O)[C@H](C)C[C@@H]2OC [Example 26]	1
CC[C@@H]1/C=C(\C)C[C@H](C)C[C@H](OC)[C@H]2O[C@@](O)(C(=O)C(=O)N3CCCC[C@H]3C(=O)O[C@H](/C(C)=C/[C@@H]3CC[C@@H](OC(=O)N4CCNCC4)[C@H](OC)C3)[C@H](C)[C@@H](O)CC1=O)[C@H](C)C[C@@H]2OC [Example 21]	11
CC[C@@H]1/C=C(\C)C[C@H](C)C[C@H](OC)[C@H]2O[C@@](O)(C(=O)C(=O)N3CCCC[C@H]3C(=O)O[C@H](/C(C)=C/[C@@H]3CC[C@@H](OC(=O)NNC(N)=O)[C@H](OC)C3)[C@H](C)[C@@H](O)CC1=O)[C@H](C)C[C@@H]2OC [Example 5]	8.7
CC[C@@H]1/C=C(\C)C[C@H](C)C[C@H](OC)[C@H]2O[C@@](O)(C(=O)C(=O)N3CCCC[C@H]3C(=O)O[C@H](/C(C)=C/[C@@H]3CC[C@@H](OC(=O)NO)[C@H](OC)C3)[C@H](C)[C@@H](O)CC1=O)[C@H](C)C[C@@H]2OC [Example 27]	1.28
CCOC(=O)CN(C)C(=O)O[C@@H]1CC[C@@H](/C=C(\C)[C@H]2OC(=O)[C@@H]3CCCCN3C(=O)C(=O)[C@]3(O)O[C@H]([C@@H](OC)C[C@@H](C)C/C(C)=C/[C@@H](CC)C(=O)C[C@H](O)[C@H]2C)[C@@H](OC)C[C@H]3C)C[C@H]1OC [Example 32]	27
CC[C@@H]1/C=C(\C)C[C@H](C)C[C@H](OC)[C@H]2O[C@@](O)(C(=O)C(=O)N3CCCC[C@H]3C(=O)O[C@H](/C(C)=C/[C@@H]3CC[C@@H](OC(=O)N4CCCCC4)[C@H](OC)C3)[C@H](C)[C@@H](O)CC1=O)[C@H](C)C[C@@H]2OC [Example 12]	1.2
CC[C@@H]1/C=C(\C)C[C@H](C)C[C@H](OC)[C@H]2O[C@@](O)(C(=O)C(=O)N3CCCC[C@H]3C(=O)O[C@H](/C(C)=C/[C@@H]3CC[C@@H](OC(=O)N(C)CCc4ccccc4)[C@H](OC)C3)[C@H](C)[C@@H](O)CC1=O)[C@H](C)C[C@@H]2OC [Example 30]	4.2
CC[C@@H]1/C=C(\C)C[C@H](C)C[C@H](OC)[C@H]2O[C@@](O)(C(=O)C(=O)N3CCCC[C@H]3C(=O)O[C@H](/C(C)=C/[C@@H]3CC[C@@H](OC(=O)N4CCC(O)CC4)[C@H](OC)C3)[C@H](C)[C@@H](O)CC1=O)[C@H](C)C[C@@H]2OC [Example 15]	1.34
CC[C@@H]1/C=C(\C)C[C@H](C)C[C@H](OC)[C@H]2O[C@@](O)(C(=O)C(=O)N3CCCC[C@H]3C(=O)O[C@H](/C(C)=C/[C@@H]3CC[C@H](OC(=O)N(CCO)CCO)[C@H](OC)C3)[C@H](C)[C@@H](O)CC1=O)[C@H](C)C[C@@H]2OC [Example 45]	0.11
CC[C@@H]1/C=C(\C)C[C@H](C)C[C@H](OC)[C@H]2O[C@@](O)(C(=O)C(=O)N3CCCC[C@H]3C(=O)O[C@H](/C(C)=C/[C@@H]3CC[C@@H](OC(=O)N(CC)CCO)[C@H](OC)C3)[C@H](C)[C@@H](O)CC1=O)[C@H](C)C[C@@H]2OC [Example 28]	4.26
CC[C@@H]1/C=C(\C)C[C@H](C)C[C@H](OC)[C@H]2O[C@@](O)(C(=O)C(=O)N3CCCC[C@H]3C(=O)O[C@H](/C(C)=C/[C@@H]3CC[C@@H](OC(=O)N4CCC(=O)CC4)[C@H](OC)C3)[C@H](C)[C@@H](O)CC1=O)[C@H](C)C[C@@H]2OC [Example 16]	4.75
CC[C@@H]1/C=C(\C)C[C@H](C)C[C@H](OC)[C@H]2O[C@@](O)(C(=O)C(=O)N3CCCC[C@H]3C(=O)O[C@H](/C(C)=C/[C@@H]3CC[C@@H](OC(=O)N4CCC(c5ccccc5)CC4)[C@H](OC)C3)[C@H](C)[C@@H](O)CC1=O)[C@H](C)C[C@@H]2OC [Example 19]	2.6
CC[C@@H]1/C=C(\C)C[C@H](C)C[C@H](OC)[C@H]2O[C@@](O)(C(=O)C(=O)N3CCCC[C@H]3C(=O)O[C@H](/C(C)=C/[C@@H]3CC[C@@H](OC(=O)N4CCC(C(N)=O)CC4)[C@H](OC)C3)[C@H](C)[C@@H](O)CC1=O)[C@H](C)C[C@@H]2OC [Example 36]	15
CC[C@@H]1/C=C(\C)C[C@H](C)C[C@H](OC)[C@H]2O[C@@](O)(C(=O)C(=O)N3CCCC[C@H]3C(=O)O[C@H](/C(C)=C/[C@@H]3CC[C@@H](OC(=O)N(C)OC)[C@H](OC)C3)[C@H](C)[C@@H](O)CC1=O)[C@H](C)C[C@@H]2OC [Example 24]	1.1
CC[C@@H]1/C=C(\C)C[C@H](C)C[C@H](OC)[C@H]2O[C@@](O)(C(=O)C(=O)N3CCCC[C@H]3C(=O)O[C@H](/C(C)=C/[C@@H]3CC[C@H](OC(=O)NC(CO)(CO)CO)[C@H](OC)C3)[C@H](C)[C@@H](O)CC1=O)[C@H](C)C[C@@H]2OC [Example 40]	0.68
CC[C@@H]1/C=C(\C)C[C@H](C)C[C@H](OC)[C@H]2O[C@@](O)(C(=O)C(=O)N3CCCC[C@H]3C(=O)O[C@H](/C(C)=C/[C@@H]3CC[C@@H](OC(=O)N4CCN(C)CC4)[C@H](OC)C3)[C@H](C)[C@@H](O)CC1=O)[C@H](C)C[C@@H]2OC [Example 22]	28
CC[C@@H]1/C=C(\C)C[C@H](C)C[C@H](OC)[C@H]2O[C@@](O)(C(=O)C(=O)N3CCCC[C@H]3C(=O)O[C@H](/C(C)=C/[C@@H]3CC[C@@H](OC(=O)NOCc4ccccc4)[C@H](OC)C3)[C@H](C)[C@@H](O)CC1=O)[C@H](C)C[C@@H]2OC [Example 6]	0.21
CC[C@@H]1/C=C(\C)C[C@H](C)C[C@H](OC)[C@H]2O[C@@](O)(C(=O)C(=O)N3CCCC[C@H]3C(=O)O[C@H](/C(C)=C/[C@@H]3CC[C@@H](OC(=O)N(CCO)CCO)[C@H](OC)C3)[C@H](C)[C@@H](O)CC1=O)[C@H](C)C[C@@H]2OC [Example 13]	3.3
CC[C@@H]1/C=C(\C)C[C@H](C)C[C@H](OC)[C@H]2O[C@@](O)(C(=O)C(=O)N3CCCC[C@H]3C(=O)O[C@H](/C(C)=C/[C@@H]3CC[C@@H](OC(=O)N(C)C[C@H](O)[C@@H](O)[C@H](O)[C@H](O)CO)[C@H](OC)C3)[C@H](C)[C@@H](O)CC1=O)[C@H](C)C[C@@H]2OC [Example 23]	50
CC[C@@H]1/C=C(\C)C[C@H](C)C[C@H](OC)[C@H]2O[C@@](O)(C(=O)C(=O)N3CCCC[C@H]3C(=O)O[C@H](/C(C)=C/[C@@H]3CC[C@H](OC(=O)N4CCOCC4)[C@H](OC)C3)[C@H](C)[C@@H](O)CC1=O)[C@H](C)C[C@@H]2OC [Example 41]	0.08
CC[C@@H]1/C=C(\C)C[C@H](C)C[C@H](OC)[C@H]2O[C@@](O)(C(=O)C(=O)N3CCCC[C@H]3C(=O)O[C@H](/C(C)=C/[C@@H]3CC[C@@H](OC(=O)N4CCC(C(=O)O)CC4)[C@H](OC)C3)[C@H](C)[C@@H](O)CC1=O)[C@H](C)C[C@@H]2OC [Example 18]	13
CC[C@@H]1/C=C(\C)C[C@H](C)C[C@H](OC)[C@H]2O[C@@](O)(C(=O)C(=O)N3CCCC[C@H]3C(=O)O[C@H](/C(C)=C/[C@@H]3CC[C@@H](OC(=O)N4CCOCCOCCOCCOCC4)[C@H](OC)C3)[C@H](C)[C@@H](O)CC1=O)[C@H](C)C[C@@H]2OC [Example 34]	1.1
CC[C@@H]1/C=C(\C)C[C@H](C)C[C@H](OC)[C@H]2O[C@@](O)(C(=O)C(=O)N3CCCC[C@H]3C(=O)O[C@H](/C(C)=C/[C@@H]3CC[C@@H](OC(=O)N(C)Cc4ccccc4)[C@H](OC)C3)[C@H](C)[C@@H](O)CC1=O)[C@H](C)C[C@@H]2OC [Example 29]	4.45
CC[C@@H]1/C=C(\C)C[C@H](C)C[C@H](OC)[C@H]2O[C@@](O)(C(=O)C(=O)N3CCCC[C@H]3C(=O)O[C@H](/C(C)=C/[C@@H]3CC[C@@H](OC(=O)N(C)CCN(CC)CC)[C@H](OC)C3)[C@H](C)[C@@H](O)CC1=O)[C@H](C)C[C@@H]2OC [Example 35]	1.79
